Legend:
CXCR4 [1] = target: T1, CXCR4 (Homo sapiens, UniProt P61073); assay: PathHunter β-Arrestin CXCR4 assay, antagonist mode with SDF-1; type: cell-based; settings: SDF-1 at EC80 concentration
Method: (§1) To detect activation of CXCR4 by ELA or SDF-1, recombinant ELA or SDF-1 were added in increasing concentrations for 90-180 minutes to cells stably expressing CXCR4 coupled to a downstream reporter. β-Arrestin recruitment was measured using the PathHunter® β-Arrestin CXCR4 assay (DiscoveRx). Interaction of CXCR4 with Arrestin was detected by Enzyme Fragment Complementation (EFC) between two complementary domains of β-galactosidase (β-Gal), one fused to CXCR4 and the other fused to β-Arrestin. β-Arrestin recruitment to CXCR4 results in complementation of the two domains to generate β-Gal activity. % Ac ? vity=100%×(mean RLU of test sample−mean RLU of vehicle control)/(mean MAX control ligand−mean RLU of vehicle control). To detect antagonism of SDF-1 by ELA, the assay was run in antagonist mode by measuring the EC50 of ELA in the presence of SDF-1 at EC80 concentration. To detect synergism between ELA and SDF-1, the assay was run in positive allosteric mode by measuring the EC50 of ELA in the presence of SDF-1 at EC20 concentration.

[2] = pulmonary arterial hypertension, APELIN experiments repeated with ELABELA; settings: in vivo
Description: Am J Physiol Heart Circ Physiol 2009; 296:H2007-14.

hECs = assay: growth and survival effect of recombinant ELA on hECs; type: cell-based, human
Method: (§2) Primary human fibroblasts, SW1353 chondrosarcoma (ATCC) and NTERA2 hECs (a gift from Barbara Knowles and Davor Solter) were grown in Dulbecco's modified Eagle's medium (DMEM) with 10% FBS (Hyclone), 2 mM GlutaMAX™ (Invitrogen) and 1 mM sodium pyruvate. For xCELLigence real time growth assays, 4000 cells were plated per well of an E-plate (ACEA Biosciences) with media changes every 48 hours. […] Cell cycle studies were performed with Click-iT EDU staining kit (Invitrogen) and by performing a double thymidine block (2.5 mM thymidine; 16 hour block, 8 hour release, 16 hour block) followed by DAPI staining for DNA content at the indicated times following release.

hESCs [3] = assay: uptake of FITC-labeled recombinant peptide by hESCs (immunofluorescence); type: cell-based, human
CXCR4 [4] = target: T1, CXCR4; assay: PathHunter β-Arrestin CXCR4 assay, activation; type: cell-based; settings: β-Arrestin recruitment
Method: as §1

[5] = myocardial ischaemia-reperfusion injury, APELIN experiments repeated with ELABELA; type: in vivo; settings: administered during reperfusion
Description: Peptides 2009; 30:1144-52. • Simpkin J C, Yellon D M, Davidson S M, Lim S Y, Wynne A M, Smith C C. […] Basic Res Cardiol 2007; 102:518-28.

hESCs [6] = assay: stress-induced apoptosis of hESCs by ActinomycinD; type: cell-based, human
Method: To induce apoptosis, hESCs were treated with the indicated doses of ActinomycinD (Sigma) or ionizing radiation followed by Aqueous One Cell Titer (Promega) or CASPASE GLO3/7 (Promega) assays 12 hours post-treatment.

[7] = coronary artery disease / myocardial infarction, APELIN experiments repeated with ELABELA; type: in vivo
Description: Peptides 2013; 46:76-82. • Li L, Zeng H, Chen J X. Apelin-13 increases myocardial progenitor cells and improves repair postmyocardial infarction. Am J Physiol Heart Cire Physiol 2012; 303:H605-18. • Pisarenko O I, Serebryakova L I, Pelogeykina Y A, et al. In vivo reduction of reperfusion injury to the heart with apelin-12 peptide in rats. Bull Exp Biol Med 2011; 152:79-82.

[8] = heart failure, APELIN experiments repeated with ELABELA; settings: in vivo
Description: Nature 2012 Aug. […] J Clin Invest. 2013 Nov. 1.

[9] = test system: primary human fibroblasts; assay: growth and survival effect of recombinant ELA on primary fibroblasts; type: cell-based
Method: as §2

PRAS40 = assay: SILAC-based phosphoproteomic analysis of hESCs pulsed for 10 minutes; type: cell-based, human; settings: 10 minute pulse, 5 uM
hESCs [10] = assay: stress-induced apoptosis of hESCs by ionizing radiation; type: cell-based, human
hESCs [11] = assay: embryoid body differentiation of ELA-treated hESCs (qPCR); type: cell-based, human
Method: Embryoid body differentiation was performed by plating 1 million cells per well of an Aggrewell 400 plate in Aggrewell Medium (Stem Cell Technologies) followed by harvesting and replating into low-adhesion plates (Corning).
(§3) After the indicated time periods, embryoid bodies were harvested and RNA extracted using RNeasy kit ([…]). qPCR reactions were carried out using either Universal FastSlart SYBR Green Mastermix (Roche) or using the Universal Probe Library system (Roche) in tandem with Taqman Fast Mastermix (Invitrogen). Primer sequences can be found in Table E1.

hESCs [12] = assay: survival of hESCs after single-cell dissociation (anoikis); type: cell-based, human; settings: with or without Y-27632
Method: hESCs were dissociated into single cells using Accutase (Stem Cell Technologies) and plated in the presence of 10 μM Y-27632 (ROCK inhibitor) for 12 hours (Watanabe et al., 2007).

[13] = test system: human chondrosarcoma cell line; assay: growth and survival effect of recombinant ELA on chondrosarcoma cells; type: cell-based
Method: as §2

hESCs [14] = assay: FACS of stem cell surface markers SSEA3 and TRA-1-60 in hESCs; type: cell-based, human
PI3K/AKT pathway = assay: signaling pathway assay in starved hESCs pulsed with peptide (SDS-PAGE, western); type: cell-based, human
Method: To assay the signaling pathway activated by ELA, hESCs were dissociated and plated in mTSER1 for 48 hours, followed by a 2-hour starvation in DMEM/F12. Synthetically produced ELA or ELA^RR>GG peptides, dialyzed against PBS to remove any residual synthesis buffers, were added at a final concentration of 5 uM (or as indicate(D) for the indicated period of time. Where applicable, PI3K inhibitors LY294002 (5 uM) and Wortmannin (1 uM) were added 30 minutes before pulsing with ELA peptides. Cells were lysed with PhosphoSafe™ (Millipore) for SDS-PAGE.

hESCs [15] = assay: qPCR of mesendodermal markers in hESCs; type: cell-based, human
Method: as §3

hESCs [16] = assay: stress-induced apoptosis of hESCs by ActinomycinD; type: cell-based, human; remark: listed apart in the source
[17] = 3 hours after 1 Gray of γ irradiation

T1 sequence (P61073 whole entry, the tested form may be a part): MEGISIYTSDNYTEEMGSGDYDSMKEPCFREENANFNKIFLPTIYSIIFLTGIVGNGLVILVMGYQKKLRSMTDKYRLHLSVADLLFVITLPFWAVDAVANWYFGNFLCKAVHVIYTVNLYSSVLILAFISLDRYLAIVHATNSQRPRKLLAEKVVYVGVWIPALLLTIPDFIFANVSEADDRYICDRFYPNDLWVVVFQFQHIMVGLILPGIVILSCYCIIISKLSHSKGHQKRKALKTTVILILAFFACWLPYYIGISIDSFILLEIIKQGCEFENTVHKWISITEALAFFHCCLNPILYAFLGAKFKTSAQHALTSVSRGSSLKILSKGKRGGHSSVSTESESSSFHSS

QRPVNLTMRRKLRKHNCLQRRCMPLHSRVPFP [ELA]
antagonism of SDF1-mediated CXCR4 activation (CXCR4 [1]): preventing SDF1-mediated CXCR4 activation | symptoms of pulmonary arterial hypertension [2]: alleviates symptoms of pulmonary arterial hypertension | activity of recombinant ELA on hECs (hECs): exerted activity only on hESCs cultures and no other differentiated cell types | uptake by hESCs (hESCs [3]): rapidly up-taken by hESCs | activation of CXCR4 (CXCR4 [4]): cannot activate CXCR4 | infarct size [5]: significantly decrease infarct size | activated CASPASE3/7 and CASPASE 9 after ActinomycinD (hESCs [6]): entirely suppressed | resistance or sensitivity to ActinomycinD (hESCs [6]; nanomolar concentrations of ActinomycinD): conferred significant resistance to control hESCs and completely rescued shELA hESCs | angiogenesis and cardiac repair postmyocardial infarction ([7]; in vivo): promote angiogenesis and ameliorate cardiac repair postmyocardial infarction | myocardial infarction size and damage to cardiomyocytes ([7]; injection): limit the myocardial infarction size and reduce damage to cardiomyocytes | protection against heart failure [8]: able to provide protection against heart failure | activity of recombinant ELA on primary human fibroblasts [9]: exerted activity only on hESCs cultures and no other differentiated cell types | phosphopeptide LNpTSDFQK derived from PRAS40 (PRAS40): Among the top phosphopeptides activated by ELA | rescue of the irradiation sensitivity of shELA hESCs (hESCs [10]): rescued this phenotype | activated CASPASE 3 after irradiation (hESCs [10]; [17]): almost undetectable | γH2AX foci after irradiation (hESCs [10]; [17]): comparable numbers of γH2AX foci | lineage bias during embryoid body differentiation (hESCs [11]): not biased towards mesoderm or endoderm lineages | survival following dissociation (anoikis) (hESCs [12]): able to increase survival following dissociation | activity of recombinant ELA on human chondrosarcoma cell line [13]: exerted activity only on hESCs cultures and no other differentiated cell types | levels of cell surface markers SSEA3 and TRA-1-60 (hESCs [14]): unchanged levels | activation of ERK and SMAD2 (PI3K/AKT pathway): little to no activation of ERK and SMAD2 | activation of PI3K/AKT and mTORC1 pathway (p70S6K phosphorylation) (PI3K/AKT pathway): activates the PI3K/AKT pathway and subsequently the mTORC1 pathway | phosphorylation of AKT at serine 473 and PRAS40 at threonine 246 (PI3K/AKT pathway; 5 uM peptide after 2-hour starvation): sufficient to trigger the immediated phosphorylation of AKT at serine 473 | expression of mesendodermal genes GATA6, GATA4, FOXA2, EOMES and BRA (hESCs [15]): consistently upregulated | levels of MCL-1 (hESCs [16]): rescued with exogenous ELA | levels of P53 protein following exposure to stress (hESCs [16]): no apparent effect | BAX localisation (hESCs [16]; mitochondria versus cytoplasm): remained primarily in the cytoplasm

From patent publication US9902761B2, “Polypeptides, nucleic acids and uses thereof” (AGENCY FOR SCIENCE, TECHNOLOGY AND RESEARCH, priority 2013, dated 2018)
